{"source": "the CheMixHub viscosity set", "assay": "xn = mol fraction of the nth substance listed", "note": "Where “and” joins values, the source holds several entries; their conditions need not be identical. Identical values can stand only once. ± gives the uncertainty stated by the source."}
{"smiles": "C[N+](C)(C)CCC[N+]1(C)CCCCC1.N#C[N-]C#N.N#C[N-]C#N", "note": "+ CO", "values": [{"measurement": "viscosity", "setting": "303.15 K, 100 kPa, x1 = 0.7998", "result": "918.9 ± 120", "unit": "mPa·s"}, {"measurement": "viscosity", "setting": "313.15 K, 100 kPa, x1 = 0.7998", "result": "488.5 ± 60", "unit": "mPa·s"}, {"measurement": "viscosity", "setting": "323.15 K, 100 kPa, x1 = 0.0999", "result": "2.735 ± 0.28", "unit": "mPa·s"}]}
{"smiles": "ClCCCCCCCl", "note": "+ c1ccccc1", "values": [{"measurement": "viscosity", "setting": "308.15 K, 101 kPa, x1 = 0.09315", "result": "0.565 ± 0.012", "unit": "mPa·s"}, {"measurement": "viscosity", "setting": "308.15 K, 101 kPa, x1 = 0.1846", "result": "0.613 ± 0.013", "unit": "mPa·s"}, {"measurement": "viscosity", "setting": "308.15 K, 101 kPa, x1 = 0.2859", "result": "0.668 ± 0.014", "unit": "mPa·s"}, {"measurement": "viscosity", "setting": "308.15 K, 101 kPa, x1 = 0.3958", "result": "0.733 ± 0.015", "unit": "mPa·s"}, {"measurement": "viscosity", "setting": "308.15 K, 101 kPa, x1 = 0.5003", "result": "0.824 ± 0.017", "unit": "mPa·s"}, {"measurement": "viscosity", "setting": "308.15 K, 101 kPa, x1 = 0.5842", "result": "0.92 ± 0.019", "unit": "mPa·s"}, {"measurement": "viscosity", "setting": "308.15 K, 101 kPa, x1 = 0.6836", "result": "1.066 ± 0.022", "unit": "mPa·s"}, {"measurement": "viscosity", "setting": "308.15 K, 101 kPa, x1 = 0.7842", "result": "1.217 ± 0.026", "unit": "mPa·s"}, {"measurement": "viscosity", "setting": "308.15 K, 101 kPa, x1 = 0.8829", "result": "1.393 ± 0.03", "unit": "mPa·s"}, {"measurement": "viscosity", "setting": "313.15 K, 101 kPa, x1 = 0.09315", "result": "0.546 ± 0.011", "unit": "mPa·s"}, {"measurement": "viscosity", "setting": "313.15 K, 101 kPa, x1 = 0.1846", "result": "0.591 ± 0.012", "unit": "mPa·s"}, {"measurement": "viscosity", "setting": "313.15 K, 101 kPa, x1 = 0.2859", "result": "0.645 ± 0.014", "unit": "mPa·s"}, {"measurement": "viscosity", "setting": "313.15 K, 101 kPa, x1 = 0.3958", "result": "0.704 ± 0.015", "unit": "mPa·s"}, {"measurement": "viscosity", "setting": "313.15 K, 101 kPa, x1 = 0.5003", "result": "0.789 ± 0.017", "unit": "mPa·s"}, {"measurement": "viscosity", "setting": "313.15 K, 101 kPa, x1 = 0.5842", "result": "0.888 ± 0.019", "unit": "mPa·s"}, {"measurement": "viscosity", "setting": "313.15 K, 101 kPa, x1 = 0.6836", "result": "1.014 ± 0.021", "unit": "mPa·s"}, {"measurement": "viscosity", "setting": "313.15 K, 101 kPa, x1 = 0.7842", "result": "1.164 ± 0.025", "unit": "mPa·s"}, {"measurement": "viscosity", "setting": "313.15 K, 101 kPa, x1 = 0.8829", "result": "1.324 ± 0.028", "unit": "mPa·s"}, {"measurement": "viscosity", "setting": "318.15 K, 101 kPa, x1 = 0.09315", "result": "0.505 ± 0.011", "unit": "mPa·s"}, {"measurement": "viscosity", "setting": "318.15 K, 101 kPa, x1 = 0.1846", "result": "0.548 ± 0.012", "unit": "mPa·s"}, {"measurement": "viscosity", "setting": "318.15 K, 101 kPa, x1 = 0.2859", "result": "0.594 ± 0.012", "unit": "mPa·s"}, {"measurement": "viscosity", "setting": "318.15 K, 101 kPa, x1 = 0.3958", "result": "0.642 ± 0.014", "unit": "mPa·s"}, {"measurement": "viscosity", "setting": "318.15 K, 101 kPa, x1 = 0.5003", "result": "0.72 ± 0.015", "unit": "mPa·s"}, {"measurement": "viscosity", "setting": "318.15 K, 101 kPa, x1 = 0.5842", "result": "0.809 ± 0.017", "unit": "mPa·s"}, {"measurement": "viscosity", "setting": "318.15 K, 101 kPa, x1 = 0.6836", "result": "0.929 ± 0.02", "unit": "mPa·s"}, {"measurement": "viscosity", "setting": "318.15 K, 101 kPa, x1 = 0.7842", "result": "1.056 ± 0.022", "unit": "mPa·s"}, {"measurement": "viscosity", "setting": "318.15 K, 101 kPa, x1 = 0.8829", "result": "1.197 ± 0.025", "unit": "mPa·s"}]}
{"smiles": "C=C(C)C(=O)OC", "note": "+ c1ccccc1", "values": [{"measurement": "viscosity", "setting": "303.15 K, 101 kPa, x1 = 0.1019", "result": "0.5507 ± 0.0059", "unit": "mPa·s"}, {"measurement": "viscosity", "setting": "303.15 K, 101 kPa, x1 = 0.198", "result": "0.543 ± 0.0059", "unit": "mPa·s"}, {"measurement": "viscosity", "setting": "303.15 K, 101 kPa, x1 = 0.4005", "result": "0.5273 ± 0.0058", "unit": "mPa·s"}, {"measurement": "viscosity", "setting": "303.15 K, 101 kPa, x1 = 0.4996", "result": "0.522 ± 0.0058", "unit": "mPa·s"}, {"measurement": "viscosity", "setting": "303.15 K, 101 kPa, x1 = 0.5998", "result": "0.519 ± 0.0058", "unit": "mPa·s"}, {"measurement": "viscosity", "setting": "303.15 K, 101 kPa, x1 = 0.8001", "result": "0.5141 ± 0.0058", "unit": "mPa·s"}, {"measurement": "viscosity", "setting": "303.15 K, 101 kPa, x1 = 0.896", "result": "0.5142 ± 0.0058", "unit": "mPa·s"}]}
{"smiles": "C[N+](C)(C)CCC[N+]1(C)CCCCC1.N#C[N-]C#N.N#C[N-]C#N", "note": "+ CCO", "values": [{"measurement": "viscosity", "setting": "293.15 K, 100 kPa, x1 = 0.5002", "result": "280.5 ± 32", "unit": "mPa·s"}, {"measurement": "viscosity", "setting": "303.15 K, 100 kPa, x1 = 0.7998", "result": "828.4 ± 110", "unit": "mPa·s"}, {"measurement": "viscosity", "setting": "323.15 K, 100 kPa, x1 = 0.5002", "result": "70.55 ± 7.1", "unit": "mPa·s"}]}
{"smiles": "C=C(C)C(=O)OC", "note": "+ CC(C)CO", "values": [{"measurement": "viscosity", "setting": "298.15 K, 101.3 kPa, x1 = 0.0547", "result": "2.74 ± 0.016", "unit": "mPa·s"}, {"measurement": "viscosity", "setting": "298.15 K, 101.3 kPa, x1 = 0.1398", "result": "2.067 ± 0.012", "unit": "mPa·s"}, {"measurement": "viscosity", "setting": "298.15 K, 101.3 kPa, x1 = 0.2311", "result": "1.576 ± 0.01", "unit": "mPa·s"}, {"measurement": "viscosity", "setting": "298.15 K, 101.3 kPa, x1 = 0.33", "result": "1.22 ± 0.008", "unit": "mPa·s"}, {"measurement": "viscosity", "setting": "298.15 K, 101.3 kPa, x1 = 0.4577", "result": "0.927 ± 0.006", "unit": "mPa·s"}, {"measurement": "viscosity", "setting": "298.15 K, 101.3 kPa, x1 = 0.5037", "result": "0.852 ± 0.006", "unit": "mPa·s"}, {"measurement": "viscosity", "setting": "298.15 K, 101.3 kPa, x1 = 0.5427", "result": "0.799 ± 0.005", "unit": "mPa·s"}, {"measurement": "viscosity", "setting": "298.15 K, 101.3 kPa, x1 = 0.6552", "result": "0.686 ± 0.005", "unit": "mPa·s"}, {"measurement": "viscosity", "setting": "298.15 K, 101.3 kPa, x1 = 0.7288", "result": "0.638 ± 0.004", "unit": "mPa·s"}, {"measurement": "viscosity", "setting": "298.15 K, 101.3 kPa, x1 = 0.8409", "result": "0.594 ± 0.004", "unit": "mPa·s"}, {"measurement": "viscosity", "setting": "298.15 K, 101.3 kPa, x1 = 0.9341", "result": "0.581 ± 0.004", "unit": "mPa·s"}, {"measurement": "viscosity", "setting": "308.15 K, 101.3 kPa, x1 = 0.0547", "result": "2.077 ± 0.013", "unit": "mPa·s"}, {"measurement": "viscosity", "setting": "308.15 K, 101.3 kPa, x1 = 0.1398", "result": "1.621 ± 0.01", "unit": "mPa·s"}, {"measurement": "viscosity", "setting": "308.15 K, 101.3 kPa, x1 = 0.2311", "result": "1.274 ± 0.008", "unit": "mPa·s"}, {"measurement": "viscosity", "setting": "308.15 K, 101.3 kPa, x1 = 0.33", "result": "1.012 ± 0.006", "unit": "mPa·s"}, {"measurement": "viscosity", "setting": "308.15 K, 101.3 kPa, x1 = 0.4577", "result": "0.788 ± 0.005", "unit": "mPa·s"}, {"measurement": "viscosity", "setting": "308.15 K, 101.3 kPa, x1 = 0.5037", "result": "0.73 ± 0.005", "unit": "mPa·s"}, {"measurement": "viscosity", "setting": "308.15 K, 101.3 kPa, x1 = 0.5427", "result": "0.687 ± 0.005", "unit": "mPa·s"}, {"measurement": "viscosity", "setting": "308.15 K, 101.3 kPa, x1 = 0.6552", "result": "0.595 ± 0.004", "unit": "mPa·s"}, {"measurement": "viscosity", "setting": "308.15 K, 101.3 kPa, x1 = 0.7288", "result": "0.553 ± 0.004", "unit": "mPa·s"}, {"measurement": "viscosity", "setting": "308.15 K, 101.3 kPa, x1 = 0.8409", "result": "0.512 ± 0.004", "unit": "mPa·s"}, {"measurement": "viscosity", "setting": "308.15 K, 101.3 kPa, x1 = 0.9341", "result": "0.495 ± 0.004", "unit": "mPa·s"}]}
{"smiles": "Cc1cccc(C)c1O", "note": "+ C[N+](C)(C)CCO.[Cl-]", "values": [{"measurement": "viscosity", "setting": "298.15 K, 101.33 kPa, x1 = 0.7", "result": "151.2 ± 58", "unit": "mPa·s"}, {"measurement": "viscosity", "setting": "298.15 K, 101.33 kPa, x1 = 0.8", "result": "86.79 ± 27 mPa·s and 61.87 ± 16 mPa·s and 54.12 ± 13 mPa·s"}, {"measurement": "viscosity", "setting": "298.15 K, 101.33 kPa, x1 = 0.9", "result": "50.22 ± 12", "unit": "mPa·s"}]}
{"smiles": "O=C(O)CCCC(=O)O", "note": "+ C[N+](C)(C)CCO.[Cl-]", "values": [{"measurement": "viscosity", "setting": "293.15 K, 100 kPa, x2 = 0.5", "result": "2968 ± 190", "unit": "mPa·s"}, {"measurement": "viscosity", "setting": "298.15 K, 100 kPa, x2 = 0.5", "result": "2015 ± 120", "unit": "mPa·s"}, {"measurement": "viscosity", "setting": "303.15 K, 100 kPa, x2 = 0.5", "result": "1408 ± 81", "unit": "mPa·s"}, {"measurement": "viscosity", "setting": "308.15 K, 100 kPa, x2 = 0.5", "result": "1007 ± 55", "unit": "mPa·s"}, {"measurement": "viscosity", "setting": "313.15 K, 100 kPa, x2 = 0.5", "result": "735.8 ± 39", "unit": "mPa·s"}, {"measurement": "viscosity", "setting": "318.15 K, 100 kPa, x2 = 0.5", "result": "547.5 ± 28", "unit": "mPa·s"}, {"measurement": "viscosity", "setting": "323.15 K, 100 kPa, x2 = 0.5", "result": "414.6 ± 20", "unit": "mPa·s"}]}
